From patent US20230241226A1, “COMPOUNDS FOR TARGETED DEGRADATION OF CARRIER PROTEINS AND USES THEREOF” (CeMM - Forschungszentrum für Molekulare Medizin GmbH, priority 2019, published 2023)
“Also recorded” adds a separate entry of the source.

Experiments:
[1] = target: T1, dTAG-HA SLC38A2 (knock-in) (Homo sapiens, UniProt Q96QD8+Q96SW2); assay: dTAG knock-in: degradation of endogenously tagged SLC38A2 induced by amino acid starvation; assay type: cell-based
T1 construct: SLC38A2 was selected for endogenous tagging at the N-terminus; endogenous in cells
Text: (A) dTAG knock-in: SLC38A2 was tagged at N-terminus with dTAG-HA. Blasticidn was used as the selection marker. Single cell clones were derived and characterized as previously described. Two representative clones, B7 and C9 are presented here.
(B) The expression of dTAG-HA SLC38A2 was induced by replacing the normal culture media with media deprived of amino acids and FBS. Expression of the endogenous SLC is induced rapidly and was monitored by immunofluorescence imaging and quantified by automated image analysis. Representative images are shown.
(C)The effect of amino acid starvation on dTAG-HA SLC38A2 expression in HAP1 cells. Cells were treated with 0.5 µM dTAG13 and/or media lacking amino acids/FBS for either 6 or 10 hours, after which expression and degradation were monitored via western blot.
(D) Immunofluorescence imaging of two different HAP1 clones expressing dTAG-HA SLC38A2. Cells were incubated in media lacking amino acids/FBS for 8 hours and treated with 0.5 µM dTAG13 for either 8 or 10 hours. Expression of the endogenous SLC is induced rapidly and was monitored by immunofluorescence and quantified by automated image analysis. Representative images are presented.
HEK293T, LS180 were obtained from ATCC (Manassas, VA, USA), HAP1 WT, HAP1 -/-SLC38A2 (HZGHC001975c003), HAP1 -/-SLC38A9 (HZGHC000777c011) were obtained from Horizon Genomics. […]
(§1) For immunoblotting, whole cell extracts were prepared using RIPA lysis buffer (25 mM Tris/HCl pH 7.6, 150 mM NaCl, 1% NP-40, 1% sodium deoxycholate, 0.1% SDS, EDTA-free protease inhibitor (Roche) and phosphatase inhibitors 2+3 (Sigma- Aldrich)). […] Protein extracts were quantified and normalized using the BCA assay (Thermo Scientific). […]

[2] = target: T2, Strep/HA SLC9A4 (Homo sapiens, UniProt Q6AI14); assay: Selectivity across SLC9 family: degradation of exogenous Strep/HA SLC9A4; assay type: cell-based; details: HAP1; 250 or 750 nM; 16 hours
T2 construct: expressed in transfected cells; host or cells: HAP1 (lentiviral, pRRL Strep-HA; cDNA synthesized by Genescript)
Experimental: (E) Selectivity of d9A1-2 was tested across HAP1 cell lines expressing Strep/HASLC9A1, 9A4, 9A5, 9A8, 9A2, 9B2, 9A6, 9A9, and 9A3. Cells were treated with varying concentrations of d9A1-2 for 16 hours, after which degradation of the exogenous SLCs was monitored.
SLC1A5, SLC2A1, SLC2A3, SLC16A1, SLC38A1, SLC38A2 were obtained as gateway-compatible pENTR/pDONR vectors from the Harvard PlasmID Repository. SLC39A7 was obtained from Dharmacon, GE Healthcare. The following vectors were synthesized by Genescript: SLC4A4, SLC7A3, SLC38A9, SLC25A1, SLC9A1, SLC9A2, SLC9A3, SLC9A4, SLC9A5, SLC9A6, SLC9A7, SLC9A8, and SLC9B2. SLC30A9, SLC33A1, SLC35B2, SLC25A26, and MTCH2 were a gift from the RESOLUTE consortium. cDNAs were transferred into gateway-compatible lentiviral expression vectors: pLX305 dTAG vectors (Addgene #91797/8) or pRRL Strep-HA (described previously43, EF1a promotor driven expression) using LR recombination (ThermoFisher Scientific). […]
as §1

T1 sequence (Q96SW2 whole entry): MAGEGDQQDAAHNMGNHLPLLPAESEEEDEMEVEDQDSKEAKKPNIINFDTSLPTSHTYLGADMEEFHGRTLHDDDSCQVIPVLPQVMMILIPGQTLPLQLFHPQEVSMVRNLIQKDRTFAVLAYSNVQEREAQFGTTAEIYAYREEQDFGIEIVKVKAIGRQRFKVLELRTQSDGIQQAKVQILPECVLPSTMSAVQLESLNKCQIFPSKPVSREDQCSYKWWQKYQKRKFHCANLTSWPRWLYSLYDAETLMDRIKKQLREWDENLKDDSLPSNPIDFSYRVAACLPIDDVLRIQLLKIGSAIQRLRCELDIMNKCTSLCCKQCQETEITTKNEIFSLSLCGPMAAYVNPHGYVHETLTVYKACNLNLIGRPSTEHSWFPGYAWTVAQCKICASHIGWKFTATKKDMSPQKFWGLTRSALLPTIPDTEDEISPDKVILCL
T1 sequence (Q16531 whole entry, further chain): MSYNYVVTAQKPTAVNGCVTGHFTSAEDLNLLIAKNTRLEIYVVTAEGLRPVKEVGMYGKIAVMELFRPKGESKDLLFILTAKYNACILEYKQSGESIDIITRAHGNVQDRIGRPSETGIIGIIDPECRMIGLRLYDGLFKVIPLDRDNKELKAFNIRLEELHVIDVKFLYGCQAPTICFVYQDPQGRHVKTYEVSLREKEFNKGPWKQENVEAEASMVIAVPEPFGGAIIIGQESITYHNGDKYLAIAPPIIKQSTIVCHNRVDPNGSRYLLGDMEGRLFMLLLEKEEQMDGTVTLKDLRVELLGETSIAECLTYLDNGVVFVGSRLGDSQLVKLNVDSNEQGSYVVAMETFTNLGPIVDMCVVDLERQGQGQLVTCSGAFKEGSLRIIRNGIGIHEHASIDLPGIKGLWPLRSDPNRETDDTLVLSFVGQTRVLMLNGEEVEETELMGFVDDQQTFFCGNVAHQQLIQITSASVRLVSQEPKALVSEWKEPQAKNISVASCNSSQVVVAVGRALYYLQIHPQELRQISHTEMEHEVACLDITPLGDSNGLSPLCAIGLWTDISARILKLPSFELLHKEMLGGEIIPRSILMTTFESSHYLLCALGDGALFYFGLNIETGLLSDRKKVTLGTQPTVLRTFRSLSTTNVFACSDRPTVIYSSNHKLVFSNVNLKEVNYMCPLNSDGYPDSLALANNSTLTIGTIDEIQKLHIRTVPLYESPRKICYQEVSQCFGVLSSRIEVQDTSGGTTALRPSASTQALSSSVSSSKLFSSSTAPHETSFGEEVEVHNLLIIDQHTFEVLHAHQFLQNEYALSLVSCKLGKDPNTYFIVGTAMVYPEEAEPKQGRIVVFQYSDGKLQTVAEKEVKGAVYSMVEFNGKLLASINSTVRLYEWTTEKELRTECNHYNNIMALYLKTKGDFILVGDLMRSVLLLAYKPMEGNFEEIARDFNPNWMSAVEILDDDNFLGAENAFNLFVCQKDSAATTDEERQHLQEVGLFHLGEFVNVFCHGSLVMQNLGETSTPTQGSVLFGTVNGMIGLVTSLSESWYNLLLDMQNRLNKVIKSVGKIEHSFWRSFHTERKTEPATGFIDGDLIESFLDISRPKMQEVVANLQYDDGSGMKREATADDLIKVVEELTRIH
T1 sequence (Q96QD8 other isoform, or with tags, fused parts or gaps): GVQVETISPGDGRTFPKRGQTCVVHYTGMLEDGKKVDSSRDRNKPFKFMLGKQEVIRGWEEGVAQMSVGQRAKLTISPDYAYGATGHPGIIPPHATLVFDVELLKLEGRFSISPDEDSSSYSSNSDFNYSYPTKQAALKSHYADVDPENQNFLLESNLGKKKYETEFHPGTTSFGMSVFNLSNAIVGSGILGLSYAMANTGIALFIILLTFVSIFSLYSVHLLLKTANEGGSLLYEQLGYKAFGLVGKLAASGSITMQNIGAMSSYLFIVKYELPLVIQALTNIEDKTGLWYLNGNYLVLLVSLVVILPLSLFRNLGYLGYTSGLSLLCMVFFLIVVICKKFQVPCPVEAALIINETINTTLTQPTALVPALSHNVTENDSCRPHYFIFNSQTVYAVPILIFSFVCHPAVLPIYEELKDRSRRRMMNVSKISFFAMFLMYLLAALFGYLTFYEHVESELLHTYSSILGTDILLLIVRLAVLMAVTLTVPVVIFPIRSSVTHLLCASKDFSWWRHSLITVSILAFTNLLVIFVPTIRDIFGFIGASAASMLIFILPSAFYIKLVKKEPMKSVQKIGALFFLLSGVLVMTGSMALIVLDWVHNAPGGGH
T2 sequence (Q6AI14 whole entry): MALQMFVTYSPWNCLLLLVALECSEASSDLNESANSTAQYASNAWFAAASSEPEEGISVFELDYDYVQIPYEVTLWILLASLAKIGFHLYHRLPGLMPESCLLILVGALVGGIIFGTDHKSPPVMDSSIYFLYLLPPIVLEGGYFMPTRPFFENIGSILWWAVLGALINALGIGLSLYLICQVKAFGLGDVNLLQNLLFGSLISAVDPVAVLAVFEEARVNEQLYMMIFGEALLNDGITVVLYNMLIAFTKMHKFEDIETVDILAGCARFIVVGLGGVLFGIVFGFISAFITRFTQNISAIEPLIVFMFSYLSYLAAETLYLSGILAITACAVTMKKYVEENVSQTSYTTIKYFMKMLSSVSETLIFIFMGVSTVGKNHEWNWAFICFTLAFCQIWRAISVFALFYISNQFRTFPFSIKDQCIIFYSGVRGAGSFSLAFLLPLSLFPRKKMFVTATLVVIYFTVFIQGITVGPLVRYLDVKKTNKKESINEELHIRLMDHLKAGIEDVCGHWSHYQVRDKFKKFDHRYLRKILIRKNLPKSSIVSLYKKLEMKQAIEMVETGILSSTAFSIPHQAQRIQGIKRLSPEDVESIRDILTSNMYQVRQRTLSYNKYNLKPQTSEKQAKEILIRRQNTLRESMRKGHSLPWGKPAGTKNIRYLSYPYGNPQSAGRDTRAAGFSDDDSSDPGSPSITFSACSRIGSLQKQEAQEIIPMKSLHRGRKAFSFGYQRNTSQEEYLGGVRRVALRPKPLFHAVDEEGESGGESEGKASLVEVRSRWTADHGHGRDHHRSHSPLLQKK

Structure (SMILES)	degradation of knock-in dTAG-HA SLC38A2 (western blot) ([1]; HAP1, 0.5 µM cotreatment with media lacking amino acids/FBS, 6 or 10 hours)	SLC38A2 expression after pre-treatment (immunofluorescence, automated image analysis) ([1]; HAP1 knock-in clones, 0.5 µM, 2 hours pre-treatment, 8 hours starvation)	reduction of SLC38A2 expression by co-treatment ([1]; HAP1 knock-in clones, 0.5 µM, co-treatment with starvation 8 hours)	degradation of exogenous SLC9A4 [2]
CC[C@H](C(=O)N1CCCC[C@H]1C(=O)O[C@H](CCc1ccc(OC)c(OC)c1)c1ccccc1OCC(=O)NCCCCCCOc1cccc2c1C(=O)N(C1CCC(=O)NC1=O)C2=O)c1cc(OC)c(OC)c(OC)c1 (stereo partly shown) [dTAG13]	Near complete degradation	completely abrogate any SLC expression; also recorded: completely ablated	more than 50%	–
Cc1cc(-c2ccc(C(=O)NCCOCCOCCOCCOCCNc3cccc4c3C(=O)N(C3CCC(=O)NC3=O)C4=O)cc2N2CCC(c3[nH]cnc3C)CC2)ccc1F (stereo not shown) [d9A1-2]	–	–	–	prompted degradation
